The results in this text go back to patent US7485455B2, “Nucleic acid encoding sodium channel subunit” (Wisconsin Alumni Research Foundation, priority 2002, dated 2009).

This experiment relates to untransfected HEK cells (endogenous currents). The following applies: incubation with mexiletine 100 μM for 24 hours, n=10, not significantly increased.

`Cc1cccc(C)c1OCC(C)N` (stereo not shown) [mexiletine] gave an endogenous current density of 1.1±0.4 pA/pF.
